From US8183380B2, “2-aminoquinolines” (Hoffmann-La Roche Inc., priority 2008, dated 2012)

The molecules below were run against T1, recombinant human 5-HT5A receptor (Homo sapiens, UniProt P47898) (assay: [3H]LSD radioligand binding assay). Settings: [3H]LSD (approximately 1 nM); membranes from transiently expressed 5-HT5A receptors in HEK-EBNA cells; Ki from IC50 by Cheng-Prussoff equation.
T1 construct: expressed in transfected cells; host or cells: HEK-EBNA (Human Embryonic Kidney-EBNA) cells, transient cDNA expression; membranes
Experimental: A [^3H]LSD radioligand binding assay was used to determine the affinity of the compounds for the recombinant human 5-HT5A receptor, in membranes from transiently (cDNA) expressed 5-HT5A receptors in Human Embryonic Kidney-EBNA (HEK-EBNA) cells. Assay buffer consisted of Tris (50 mM) buffer containing 1 mM EGTA, 10 mM MgCl2 (pH 7.4) and 10 μM pargyline. The binding assay was carried out in 96-well-plates in the presence of [^3H]LSD (approximately 1 nM), approximately 2 μg/well of membrane protein, and 0.5 mg of Ysi-poly-1-lysine SPA beads in a final volume of 200 μl of buffer. Non-specific binding was defined using methiothepin 2 μM. Compounds were tested at 10 concentrations. All assays were conducted in duplicate and repeated at least two times. Assay plates were incubated for 120 min at room temperature before centrifugation. Bound ligand was determined using a Packard Topcount scintillation counter. IC50 values were calculated using a non-linear curve fitting program and Ki values calculated using the Cheng-Prussoff equation.

T1 sequence (P47898 whole entry): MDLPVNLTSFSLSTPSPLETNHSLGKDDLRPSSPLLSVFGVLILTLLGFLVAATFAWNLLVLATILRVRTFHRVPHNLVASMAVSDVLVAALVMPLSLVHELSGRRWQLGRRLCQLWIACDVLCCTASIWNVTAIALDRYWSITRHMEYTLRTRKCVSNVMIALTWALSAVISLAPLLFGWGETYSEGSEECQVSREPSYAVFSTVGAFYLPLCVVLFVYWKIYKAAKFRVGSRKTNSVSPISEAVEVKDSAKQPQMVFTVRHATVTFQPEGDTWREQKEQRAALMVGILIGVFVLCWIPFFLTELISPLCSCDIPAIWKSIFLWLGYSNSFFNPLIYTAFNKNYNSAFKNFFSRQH

Ki [nM] | SMILES
1.5 | COc1cccc2c1C(Nc1ccc3cc(NC(=O)NC(C)C)ccc3n1)CC2 (racemic) [Example 12, rac-1-Isopropyl-3-[2-(7-methoxy-indan-1-ylamino)-quinolin-6-yl]-urea]
7.7 | COc1cccc2c1C(Nc1ccc3cc(NC(=O)NC(C)C)ccc3n1)CCC2 (racemic) [Example 15, rac-1-Isopropyl-3-[2-(8-methoxy-1,2,3,4-tetrahydro-naphthalen-1-ylamino)-quinolin-6-yl]-urea]
9.6 | CN1CCC(NC(=O)Nc2ccc3nc(NC4COc5ccccc54)ccc3c2)CC1 (racemic) [Example 35, rac-1-[2-(2,3-Dihydro-benzofuran-3-ylamino)-quinolin-6-yl]-3-(1-methyl-piperidin-4-yl)-urea]
2.2 | COc1cccc2c1C(Nc1ccc3cc(NC(=O)NC4CCN(C)CC4)ccc3n1)CC2 (racemic) [Example 40, rac-1-[2-(7-Methoxy-indan-1-ylamino)-quinolin-6-yl]-3-(1-methyl-piperidin-4-yl)-urea]
3 | COc1cccc2c1C(Nc1ccc3cc(NC(=O)NC4CCN(C(C)C)CC4)ccc3n1)CC2 (racemic) [Example 44, rac-1-(1-Isopropyl-piperidin-4-yl)-3-[2-(7-methoxy-indan-1-ylamino)-quinolin-6-yl]-urea]
3 | COCCN1CCC(NC(=O)Nc2ccc3nc(NC4CCc5cccc(OC)c54)ccc3c2)CC1 (racemic) [Example 45, rac-1-[1-(2-Methoxy-ethyl)-piperidin-4-yl]-3-[2-(7-methoxy-indan-1-ylamino)-quinolin-6-yl]-urea]
2.7 | COc1cccc2c1C(Nc1ccc3cc(NC(=O)NC4CCN(CCF)CC4)ccc3n1)CC2 (racemic) [Example 46, rac-1-[1-(2-Fluoro-ethyl)-piperidin-4-yl]-3-[2-(7-methoxy-indan-1-ylamino)-quinolin-6-yl]-urea]
3 | COc1cccc2c1C(Nc1ccc3cc(NC(=O)NC4CCN(CCC(F)(F)F)CC4)ccc3n1)CC2 (racemic) [Example 47, rac-1-[2-(7-Methoxy-indan-1-ylamino)-quinolin-6-yl]-3-[1-(3,3,3-trifluoro-propyl)-piperidin-4-yl]-urea]
3.9 | COc1cccc2c1C(Nc1ccc3cc(NC(=O)NC4CCN(CCSC)CC4)ccc3n1)CC2 (racemic) [Example 51, rac-1-[2-(7-Methoxy-indan-1-ylamino)-quinolin-6-yl]-3-[1-(2-methylsulfanyl-ethyl)-piperidin-4-yl]-urea]
7.5 | COc1cccc2c1C(Nc1ccc3cc(NC(=O)NC4CCN(C(=O)CC(F)(F)F)CC4)ccc3n1)CC2 (racemic) [Example 52, rac-1-[2-(7-Methoxy-indan-1-ylamino)-quinolin-6-yl]-3-[1-(3,3,3-trifluoro-propionyl)-piperidin-4-yl]-urea]
3.1 | COc1cccc2c1C(Nc1ccc3cc(NC(=O)NC4CCN(C5CC5)CC4)ccc3n1)CC2 (racemic) [Example 53, rac-1-(1-Cyclopropyl-piperidin-4-yl)-3-[2-(7-methoxy-indan-1-ylamino)-quinolin-6-yl]-urea]
9.7 | COc1cccc2c1C(Nc1ccc3cc(NC(=O)NC4CCN(C5CC5)CC4)ccc3n1)CCC2 (racemic) [Example 55, rac-1-(1-Cyclopropyl-piperidin-4-yl)-3-[2-(8-methoxy-1,2,3,4-tetrahydro-naphthalen-1-ylamino)-quinolin-6-yl]-urea]
5.8 | COc1cccc2c1C(Nc1ccc3cc(NC(=O)NC4CCN(C)CC4)ccc3n1)CCC2 (racemic) [Example 57, rac-1-[2-(8-Methoxy-1,2,3,4-tetrahydro-naphthalen-1-ylamino)-quinolin-6-yl]-3-(1-methyl-piperidin-4-yl)-urea]
5.3 | COCCN1CCC(NC(=O)Nc2ccc3nc(NC4CCCc5cccc(OC)c54)ccc3c2)CC1 (racemic) [Example 58, rac-1-[1-(2-Methoxy-ethyl)-piperidin-4-yl]-3-[2-(8-methoxy-1,2,3,4-tetrahydro-naphthalen-1-ylamino)-quinolin-6-yl]-urea]
5.9 | COc1cccc2c1C(Nc1ccc3cc(NC(=O)NC4CCN(CCF)CC4)ccc3n1)CCC2 (racemic) [Example 59, rac-1-[1-(2-Fluoro-ethyl)-piperidin-4-yl]-3-[2-(8-methoxy-1,2,3,4-tetrahydro-naphthalen-1-ylamino)-quinolin-6-yl]-urea]
2.5 | COc1cccc2c1C(Nc1ccc3cc(NS(=O)(=O)N(C)C)ccc3n1)CC2 (racemic) [Example 68, rac-N′-{2-[(7-methoxy-2,3-dihydro-1H-inden-1-yl)amino]quinolin-6-yl}-N,N-dimethylsulfamide]

Ki [nM] | SMILES
8.7 | COc1ccc(C)c2c1C(Nc1ccc3cc(NC(=O)NC(C)C)ccc3n1)CC2 (racemic) [Example 93, rac-1-Isopropyl-3-[2-(7-methoxy-4-methyl-indan-1-ylamino)-quinolin-6-yl]-urea]
4.4 | CC(C)NC(=O)Nc1ccc2nc(NC3CCc4cc(F)ccc43)ccc2c1 (racemic) [Example 107, rac-1-[2-(5-Fluoro-indan-1-ylamino)-quinolin-6-yl]-3-isopropyl-urea]
4 | CC(C)N1CCC(NC(=O)Nc2ccc3nc(NC4CCc5cc(F)ccc54)ccc3c2)CC1 (racemic) [Example 115, rac-1-[2-(5-Fluoro-indan-1-ylamino)-quinolin-6-yl]-3-(1-isopropyl-piperidin-4-yl)-urea]
3.4 | COc1cc(C)cc2c1C(Nc1ccc3cc(NC(=O)NC(C)C)ccc3n1)CC2 (racemic) [Example 130, rac-1-Isopropyl-3-[2-(7-methoxy-5-methyl-indan-1-ylamino)-quinolin-6-yl]-urea]
2.9 | COc1cc(C)cc2c1C(Nc1ccc3cc(NC(=O)NC4CCN(C)CC4)ccc3n1)CC2 (racemic) [Example 131, rac-1-[2-(7-Methoxy-5-methyl-indan-1-ylamino)-quinolin-6-yl]-3-(1-methyl-piperidin-4-yl)-urea]
4.4 | COc1cccc2c1C(Nc1ccc3cc(NC(=O)CN4CCN(C)CC4)ccc3n1)CC2 (racemic) [Example 139, rac-N-[2-(7-Methoxy-indan-1-ylamino)-quinolin-6-yl]-2-(4-methyl-piperazin-1-yl)-acetamide]
2.2 | COc1cccc2c1C(Nc1ccc3cc(NC(=O)C4CC4)ccc3n1)CC2 (racemic) [Example 140, rac-Cyclopropanecarboxylic acid [2-(7-methoxy-indan-1-ylamino)-quinolin-6-yl]-amide]
8.6 | O=C(Nc1ccc2nc(NC3CCc4cc(F)ccc43)ccc2c1)C1CC1 (racemic) [Example 141, rac-Cyclopropanecarboxylic acid [2-(5-fluoro-indan-1-ylamino)-quinolin-6-yl]-amide]
6.1 | CC(C)NC(=O)Nc1ccc2nc(NC3CCc4cccc(F)c43)ccc2c1 (racemic) [Example 146, rac-1-[2-(7-Fluoro-indan-1-ylamino)-quinolin-6-yl]-3-isopropyl-urea]
6.3 | CC(C)N1CCC(NC(=O)Nc2ccc3nc(NC4CCc5ccc(F)cc54)ccc3c2)CC1 (racemic) [Example 155, rac-1-[2-(6-Fluoro-indan-1-ylamino)-quinolin-6-yl]-3-(1-isopropyl-piperidin-4-yl)-urea]
3.8 | CC(C)N1CCC(NC(=O)Nc2ccc3nc(NC4CCc5cccc(F)c54)ccc3c2)CC1 (racemic) [Example 156, rac-1-[2-(7-Fluoro-indan-1-ylamino)-quinolin-6-yl]-3-(1-isopropyl-piperidin-4-yl)-urea]
8.3 | O=C(Nc1ccc2nc(NC3CCc4cccc(F)c43)ccc2c1)C1CC1 (racemic) [Example 162, rac-Cyclopropanecarboxylic acid [2-(7-fluoro-indan-1-ylamino)-quinolin-6-yl]-amide]
3.3 | COc1cccc2c1C(Nc1ccc3cc(N)ccc3n1)CC2 (racemic) [Example 172, rac-N^2-(7-Methoxy-indan-1-yl)-quinoline-2,6-diamine]
7.1 | COc1cccc2c1C(Nc1ccc3cc(NC(=O)N(C)C4CCN(C(C)C)CC4)ccc3n1)CC2 (racemic) [Example 179, rac-1-(1-Isopropyl-piperidin-4-yl)-3-[2-(7-methoxy-indan-1-ylamino)-quinolin-6-yl]-1-methyl-urea]
2.8 | COc1cccc2c1C(Nc1ccc3cc(NC(=O)NC4CCN(C(C)C)CC4)ccc3n1)CO2 (racemic) [Example 180, rac-1-(1-Isopropyl-piperidin-4-yl)-3-[2-(4-methoxy-2,3-dihydro-benzofuran-3-ylamino)-quinolin-6-yl]-urea]
4.1 | CCOc1cccc2c1C(Nc1ccc3cc(NC(=O)NC4CCN(C(C)C)CC4)ccc3n1)CO2 (racemic) [Example 181, rac-1-[2-(4-Ethoxy-2,3-dihydro-benzofuran-3-ylamino)-quinolin-6-yl]-3-(1-isopropyl-piperidin-4-yl)-urea]

SMILES | Ki [nM]
COc1cccc2c1C(Nc1ccc3cc(NC(=O)NC4CC5CCCC(C4)N5C)ccc3n1)CC2 (racemic) [Example 50, rac-1-[2-(7-Methoxy-indan-1-ylamino)-quinolin-6-yl]-(9-methyl-9-aza-bicyclo[3.3.1]non-3-yl)-urea] | 5.2
